Experimental data from article PMC3658555 (ACS Chemical Biology, 2013).

Columns and labels:
β2AR [1] = target: T1, β2AR (Homo sapiens, UniProt P07550); assay: GloSensor cAMP formation assay; format: cell-based; settings: from cAMP formation and β-arrestin recruitment
β2AR [2] = target: T1, β2AR; assay: Bias factor by the operational model, β-arrestin recruitment; format: cell-based

T1 sequence (P07550 whole entry): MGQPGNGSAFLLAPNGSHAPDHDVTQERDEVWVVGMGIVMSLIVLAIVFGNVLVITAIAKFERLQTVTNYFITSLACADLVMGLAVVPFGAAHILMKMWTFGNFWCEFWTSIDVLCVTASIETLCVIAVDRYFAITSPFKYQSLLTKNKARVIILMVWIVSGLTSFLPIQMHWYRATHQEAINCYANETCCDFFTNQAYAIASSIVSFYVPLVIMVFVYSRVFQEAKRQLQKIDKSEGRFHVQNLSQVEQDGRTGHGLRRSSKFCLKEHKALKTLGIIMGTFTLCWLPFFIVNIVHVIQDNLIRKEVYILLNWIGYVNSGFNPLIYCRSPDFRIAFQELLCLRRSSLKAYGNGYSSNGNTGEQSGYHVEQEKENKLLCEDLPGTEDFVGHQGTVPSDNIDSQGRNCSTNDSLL

SMILES: CC(Cc1ccc2c(c1)OCO2)NCC(O)c1ccc(O)c(O)c1 (stereo not drawn) [Compound 12, protokylol]
- agonist efficacy class at β2AR (β2AR [1]): full agonists
- times more efficacious in β-arrestin recruitment than in G protein-mediated cAMP production (β2AR [2]; compared to isoproterenol, the unbiased reference): approximately 10 times
- bias factor (β2AR [2]; toward β-arrestin, from both Tango and DiscoveRx β-arrestin against Glosensor cAMP data sets, reference isoproterenol): around 1
